Common to all, as to assay: NCI anticancer screen, dose series, 48 h
The subject of test [1] is 786-0.
Test [2] concerns A549.
Test [3] has as its system HOP-92.
Test [4] has as its system Hs-578T.
For test [5], the system named is K562.
Test [6] relates to MDA-N.
In test [7] the test system is NCI-H226.
Test [8] has as its system NCI-H23.
Test [9] deals with NCI-H522.
The test system of test [10] is PC-3.
The test system of test [11] is RPMI-8226.
The test system of test [12] is SNB-19.
For test [13], the system named is SNB-75.
Test [14] relates to U-251.
Test [15] has as its system UACC-257.
Test [16] relates to UACC-62.
For test [17], the system named is A498.
Test [18] concerns SK-MEL-28.
Test [19] concerns HL-60.
Test [20] deals with Malme-3M.

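Protocol summary: plate cells (96-well), add compound at 5 concentrations, incubate 48 h, interpolate endpoints linearly. At the GI50, growth is halved.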 Activity calls are given as the source filed them. Cut-off read from the data, not from the text of the source: active = GI50 up to about 1.1 µM and inactive = higher.

Results on eleven compounds are retold here after ChEMBL document CHEMBL1201862, “PubChem BioAssay data set” (2004).

Turning to `C=C1C2C[C@@H]3O[C@H]4C[C@H]5O[C@@]6(C[C@@H]7O[C@]8(C[C@H](C)[C@@H]9O[C@@H]%10CC(C=O)O[C@@H]%10C[C@@H]9O8)C[C@H](C)[C@@H]7O6)C[C@H]5O[C@H]4[C@H](C)[C@H]3OC(=O)C[C@H]3CC[C@@H]4OC5[C@H]6O[C@]7(CC[C@H]8CC(=C)[C@H](CC[C@@H](C[C@H]1C)O2)O8)CC6O[C@@H]5[C@@H](O7)[C@H]4O3` (some centres not stated), the GI50 in test [1] is < 0.0001 µM (active); in test [2] it was < 0.0001 µM (active); in test [3], 0.000724 µM (active); in [4], < 0.0001 µM (active); in test [5], < 0.0001 µM (active); in [6], < 0.0001 µM (active). The GI50 was < 0.0001 µM (active) in [7]; < 0.0001 µM (active) in test [8]; < 0.0001 µM (active) in test [9]; < 0.0001 µM (active) in test [10]; < 0.0001 µM (active) in test [11]; 0.000104 µM (active) in test [12]. For the same compound, the GI50 is < 0.0001 µM (active) in test [13], < 0.0001 µM (active) in [14], < 0.01 µM (active) in test [15] and < 0.0001 µM (active) in test [16].

In the case of `CC(=O)Nc1ccc(C(=O)NN2C(=O)CSC2c2ccc([N+](=O)[O-])cc2)cc1` (configuration not stated), the GI50 in test [1], in [17], in [2], in test [3], in test [4] and in [5] was > 100 µM (inactive) each time. Also, the GI50 in [6], in test [7], in [8], in test [11], in test [18] and in [12] was > 100 µM (inactive) in each case. The GI50 in test [13], in test [14], in test [15] and in test [16] was > 100 µM (inactive) each time.

With `O=C(O)c1ccc(Nc2nc3cc(C(F)(F)F)ccc3nc2-c2ccccc2)cc1`, the GI50 in test [1] is 18.7 µM (inactive); in test [2] it was 16.3 µM (inactive); in test [19], 27.7 µM (inactive); in test [4] it was 17.6 µM (inactive); in test [5], 16.8 µM (inactive); in [6], 30.6 µM (inactive). The GI50 in test [20] was 23.7 µM (inactive); in test [7] it was 25 µM (inactive); in test [8], 19 µM (inactive); in [9] it was 16.3 µM (inactive); in test [10], 18.5 µM (inactive); in test [11] it was 16.4 µM (inactive). The GI50 in test [18] is 28.6 µM (inactive); in test [12] it was 30.6 µM (inactive); in test [13] it was 18.3 µM (inactive); in test [14], 14.9 µM (inactive); in [15], 35.3 µM (inactive); in test [16], 10.4 µM (inactive).

With `O=C(COc1ccc(OCC(=O)N2C(=O)CC(=O)N(c3ccc(Cl)cc3)C2=S)cc1)N1C(=O)CC(=O)N(c2ccc(Cl)cc2)C1=S`, the GI50 in [1] is 19.6 µM (inactive); in [17], 47.3 µM (inactive); in test [2], 22.6 µM (inactive); in test [3], 20.7 µM (inactive); in [5], 19.4 µM (inactive); in test [6], 28.1 µM (inactive). The GI50 in test [20] is 3.26 µM (inactive); in [7], 26.6 µM (inactive); in test [8] it was 25.8 µM (inactive); in [9], 17 µM (inactive); in test [10], 29.3 µM (inactive); in [11], 49.5 µM (inactive). The GI50 in [18] was 50.4 µM (inactive); in test [12] it was 26.9 µM (inactive); in test [13], 72.9 µM (inactive); in [14] it was 33.3 µM (inactive); in test [15], 36.1 µM (inactive); in [16], 16.8 µM (inactive).

In the case of `O=c1c2cc(-c3ccccc3)cnc2sn1-c1ccc([N+](=O)[O-])cc1`, the GI50 in test [1] was 34.5 µM (inactive); in [17], 23.7 µM (inactive); in test [2], 31.8 µM (inactive); in [19] it was 37.8 µM (inactive); in test [3] it was 20.6 µM (inactive); in test [5], 35.8 µM (inactive). Also, the GI50 in [6] is 60.4 µM (inactive); in [20], 40.6 µM (inactive); in test [7] it was 44.5 µM (inactive); in test [8], 15.1 µM (inactive); in test [9] it was 22.1 µM (inactive); in test [10], 33.7 µM (inactive). For the same compound, the GI50 was 23.4 µM (inactive) in test [11]; 58.1 µM (inactive) in test [18]; 25.4 µM (inactive) in test [12]; 25.1 µM (inactive) in test [13]; 21.6 µM (inactive) in test [14]; > 100 µM (inactive) in test [15]. Further, the GI50 in test [16] is 17.7 µM (inactive).

As to `O=C(Nc1ccccc1)OCCN=C1c2ccccc2CCc2ccccc21`, the GI50 in test [1] was 32.6 µM (inactive); in [2] it was 17.5 µM (inactive); in test [19] it was 13.8 µM (inactive); in [4] it was 18.5 µM (inactive); in [5] it was 15.1 µM (inactive); in test [6], 19.6 µM (inactive). The GI50 was 22.5 µM (inactive) in test [20]; 29.4 µM (inactive) in test [7]; 55.2 µM (inactive) in test [8]; 19.6 µM (inactive) in [10]; 12.8 µM (inactive) in test [11]; 15.4 µM (inactive) in test [18]. Further, the GI50 in [12] is 14.8 µM (inactive); in test [13], 11.9 µM (inactive); in [14], 17.3 µM (inactive); in test [15], 23.1 µM (inactive); in test [16], 13.1 µM (inactive).

For `CC[C@@H](O)C[C@H]1CCC[C@@]2(C[C@@H]3OC(=O)/C=C/[C@@](C)(O)[C@@H](O)[C@H](C)[C@@H](O)[C@H](OC4CCC(N(C)C)C(C)O4)[C@@H](O)[C@](C)(O)CCCCC/C=C/[C@@H]4CC(C)(C)O[C@@]4(O)C[C@H](O2)[C@H]3C)O1` (some centres not stated), the GI50 is 11.3 µM (inactive) in [1]; 19.9 µM (inactive) in test [17]; < 0.01 µM (active) in [2]; 3.75 µM (inactive) in [19]; 13.7 µM (inactive) in test [3]; 12.8 µM (inactive) in test [4]. For the same compound, the GI50 is < 0.01 µM (active) in [5]; 2.96 µM (inactive) in [6]; 1.56 µM (inactive) in test [20]; < 0.01 µM (active) in test [8]; < 0.01 µM (active) in test [9]; < 0.01 µM (active) in test [11]. The GI50 in test [18] was 15.8 µM (inactive); in test [14], < 0.01 µM (active); in test [15], < 0.01 µM (active); in [16] it was 6.37 µM (inactive).

`c1ccc(/N=C(\N2CCOCC2)N(CCN2CCOCC2)c2ccccc2)cc1`: the GI50 in test [1] was > 100 µM (inactive); in [2] it was > 100 µM (inactive); in test [19] it was > 10 µM (inactive); in test [4], > 100 µM (inactive); in [5], > 100 µM (inactive); in [6], > 100 µM (inactive). Also, the GI50 in test [20], in test [7], in test [8], in test [9], in test [10] and in test [11] was > 100 µM (inactive) each time. The GI50 in test [18], in test [12], in test [13], in [14], in [15] and in test [16] was > 100 µM (inactive) throughout.

In the case of `OC1CCN(c2c3ccccc3nc3ccccc23)CC1`, the GI50 is 4.99 µM (inactive) in test [1]; 19 µM (inactive) in test [17]; 44.4 µM (inactive) in test [2]; 8.61 µM (inactive) in test [19]; 6.9 µM (inactive) in test [3]; 35.1 µM (inactive) in test [4]. Besides, the GI50 in test [5] was 4.01 µM (inactive); in test [20], 9.82 µM (inactive); in test [7], 34.2 µM (inactive); in [8], 8.02 µM (inactive); in [9], 2.92 µM (inactive); in [10], 25.5 µM (inactive). Besides, the GI50 is 4.82 µM (inactive) in test [11]; 2.69 µM (inactive) in [18]; 27.9 µM (inactive) in [12]; 23.8 µM (inactive) in test [13]; 21.5 µM (inactive) in [14]; 20.4 µM (inactive) in test [15]. In addition, the GI50 in test [16] was 35.5 µM (inactive).

For `OC1CCC(C2C3CCCCC3C3CCCCC3C2C2CCC(O)CC2)CC1` (configuration not stated), the GI50 in [1] was 4.16 µM (inactive); in test [17], 15.8 µM (inactive); in test [2], 4.18 µM (inactive); in test [19] it was 4.13 µM (inactive); in [3], 8.05 µM (inactive); in test [4], 7.28 µM (inactive). For the same compound, the GI50 in [5] is 4.69 µM (inactive); in [20], 15.8 µM (inactive); in test [7], 6 µM (inactive); in test [8] it was 3.08 µM (inactive); in [9], 2.34 µM (inactive); in test [10], 5.31 µM (inactive). In addition, the GI50 in test [11] was 5.53 µM (inactive); in test [18], 3.83 µM (inactive); in test [12], 6.44 µM (inactive); in [13], 5.38 µM (inactive); in test [14], 3.6 µM (inactive); in [15], 13.6 µM (inactive). Further, in test [16], the GI50 was 7.16 µM (inactive).

As to `Cn1nc(Cc2ccc(Cl)cc2)n(N)c1=O`, the GI50 in test [1], in test [17], in test [2], in test [5], in test [6] and in test [20] was > 100 µM (inactive) in each case. Moreover, the GI50 in test [7], in test [8], in test [10], in [11], in [18] and in [12] was > 100 µM (inactive) throughout. The GI50 in test [13] was > 100 µM (inactive); in test [14], > 100 µM (inactive); in [15] it was > 100 µM (inactive); in test [16] it was 39.2 µM (inactive).
